Data: patent US10100366B2, “Methods of detecting cancers sensitive to cabozantinib” (Oregon Health & Science University, priority 2015, dated 2018)

Key:
[1] = molecular target: T1, Ba/F3 cells expressing native CD74-ROS1 (Homo sapiens, UniProt P08922); test: Cell growth/viability assay (MTS), Ba/F3 native CD74-ROS1; format: cell-based; conditions: 72 h exposure, read-out: IC50, growth inhibition
T1 construct: CD74 (fusion partner, N-terminal part of CD74); expressed in transfected cells; host or cells: Ba/F3 (murine pro-B), retroviral transduction, IL-3 withdrawn; the other entry of the earlier key: CD74 (P04233, HLA class II histocompatibility antigen gamma chain)
T1 sequence (P08922 with tags, fused parts or gaps): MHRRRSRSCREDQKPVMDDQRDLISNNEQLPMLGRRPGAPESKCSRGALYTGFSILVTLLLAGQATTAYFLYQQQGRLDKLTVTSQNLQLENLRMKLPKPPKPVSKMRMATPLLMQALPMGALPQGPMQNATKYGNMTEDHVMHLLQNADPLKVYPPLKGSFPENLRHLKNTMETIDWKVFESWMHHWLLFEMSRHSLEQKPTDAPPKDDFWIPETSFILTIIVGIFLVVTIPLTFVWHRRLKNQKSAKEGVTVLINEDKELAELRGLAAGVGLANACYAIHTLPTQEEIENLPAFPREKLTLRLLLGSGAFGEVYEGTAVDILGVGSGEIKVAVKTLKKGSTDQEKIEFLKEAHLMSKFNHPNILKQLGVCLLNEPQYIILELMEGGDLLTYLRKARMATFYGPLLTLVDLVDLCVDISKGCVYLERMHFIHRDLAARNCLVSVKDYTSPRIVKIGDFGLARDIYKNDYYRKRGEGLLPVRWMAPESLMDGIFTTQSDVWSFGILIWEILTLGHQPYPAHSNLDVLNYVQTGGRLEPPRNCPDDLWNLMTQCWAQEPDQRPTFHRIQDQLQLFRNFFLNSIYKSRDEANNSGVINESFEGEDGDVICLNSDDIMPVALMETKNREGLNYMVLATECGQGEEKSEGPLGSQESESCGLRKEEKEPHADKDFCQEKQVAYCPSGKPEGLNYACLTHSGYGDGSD
Description: (§1) CD74-ROS1D2033N was generated using site-directed mutagenesis by following manufacturer's protocol (Agilent). Ba/F3 cells were maintained at densities of 0.5-1.5×10^6 cells/mL and infected with retrovirus encoding native or mutant versions of human CD74-ROS1. GFP-based selection of transduced cells was performed with a FACSAria cell sorter (BD Biosciences). Stable cell lines were washed with complete medium to remove IL-3. Cells that grew out after IL-3 withdrawal were maintained in complete medium and used for in vitro assays.
(§2) Inhibitors were prepared as 1 mM stocks in DMSO prior to each experiment. […] Ba/F3 cells expressing CD74-ROS1 constructs were seeded (800 cells/well; 25 μL) into drug plates using a Multidrop Combi Reagent Dispenser (Thermo Scientific), and plates were incubated for 72 h at 37° C., 5% CO2. Viability was measured using a methanethiosulfonate (MTS)-based assay (CellTiter96 Aqueous One Solution; Promega) read on a Biotek Synergy 2 plate reader. Proliferation experiments were performed three independent times in triplicate.

[2] = molecular target: T2, Ba/F3 cells expressing CD74-ROS1 D2033N (Homo sapiens, UniProt P08922, D2033N); test: Cell growth/viability assay (MTS), Ba/F3 CD74-ROS1 D2033N; format: cell-based
T2 construct: CD74 (fusion partner, N-terminal part of CD74); expressed in transfected cells; host or cells: Ba/F3 (murine pro-B), retroviral transduction, IL-3 withdrawn; the other entry of the earlier key: CD74 (P04233, HLA class II histocompatibility antigen gamma chain)
T2 sequence (P08922 1883-2347 D2033N limits assumed): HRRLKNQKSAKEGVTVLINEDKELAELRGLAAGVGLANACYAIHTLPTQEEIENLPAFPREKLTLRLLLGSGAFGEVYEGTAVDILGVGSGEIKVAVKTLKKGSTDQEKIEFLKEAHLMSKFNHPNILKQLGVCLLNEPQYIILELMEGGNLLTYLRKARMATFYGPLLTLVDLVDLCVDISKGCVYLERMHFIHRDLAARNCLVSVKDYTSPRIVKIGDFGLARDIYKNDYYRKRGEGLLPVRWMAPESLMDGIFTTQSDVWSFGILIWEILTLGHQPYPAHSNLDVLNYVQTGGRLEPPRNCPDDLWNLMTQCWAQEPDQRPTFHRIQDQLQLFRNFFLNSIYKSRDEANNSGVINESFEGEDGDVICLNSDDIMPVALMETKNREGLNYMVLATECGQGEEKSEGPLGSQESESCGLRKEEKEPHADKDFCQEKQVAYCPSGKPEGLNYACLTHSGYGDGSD
Description: as §1, §2

[3] = test system: CD74-ROS1-rearranged lung adenocarcinoma with acquired CD74-ROS1 D2033N mutation; test: Patient case: cabozantinib after acquired crizotinib resistance (phase II trial NCT01639508), RECIST v1.1; format: in vivo, human; conditions: one patient, 60 mg daily, at 12 weeks
Description: The patient received cabozantinib at a dose of 60 mg daily in 28-day cycles as part of an ongoing phase II clinical trial (NCT01639508) with an arm for ROS1-rearranged lung cancers. Inclusion criteria for patients in this trial were as follows: pathologic or cytologic evidence of non-small-cell lung cancer (NSCLC), clinical stage IV or recurrent/medically inoperable disease, a Karnofsky performance status of more than 70%, a life expectancy of more than 12 weeks, adequate hematologic, renal, and hepatic function, and measurable disease. Informed consent was obtained after the nature and possible consequences of the studies were explained. Treatment was discontinued in the event of disease progression, unacceptable toxicity, or patient withdrawal. Dose reductions were permitted as per a prescribed algorithm. Response was assessed using the Response Evaluation Criteria in Solid Tumors (RECIST) version 1.1 (Eisenhauer E A et al, Eur J Cancer 45, 228-247 (2009); incorporated by reference herein). Imaging was performed at baseline, 4 weeks, and every 8 weeks thereafter. In addition, scans to confirm response were performed as per RECIST. […]
Of 644 sequencing reads over that specific region of ROS1 that were at […] depth, the variant frequency of c.6097G>A was 14% in the crizotinib-resistant tumor specimen and undetectable the matched normal peripheral blood control. […]

[4] = test system: Ba/F3 CD74-ROS1 cells; test: Immunoblot analysis of ROS1 and downstream effector phosphorylation, native CD74-ROS1 cells; format: cell-based, human; conditions: 2 h treatment
Description: Ba/F3 CD74-ROS1 and CD74-ROS1D2033N […] cells were treated with the indicated concentrations of inhibitors for 2 h, pelleted, washed once in ice-cold PBS, and lysed in 200 μL of cell lysis buffer (Cell Signaling Technology) that was supplemented with 0.25% deoxycholate, 0.05% SDS, and protease and phosphatase inhibitors. Equal amounts of protein were extracted with SDS sample buffer for 15 min at 80° C. and resolved on 4-15% Tris-glycine or 4-12% Bis-Tris precast gels (Criterion; Bio-Rad). Proteins transferred to Immobilon-FL membranes (Millipore) were probed with: phospho-ROS1 [Cell Signaling Technology (CST); 3078, 1:1000], total ROS1 (CST; 3266, 1:1000), phospho-ERK1/2 (CST; 9101, 1:1000), total ERK2 (Santa Cruz; sc-1647, 1:2000), phospho-AKT (CST; 4060, 1:1000), AKT (BD Transduction Laboratories; 610860, 1:1000), pSHP2 (CST; 3703), pSTAT3 (CST, 9131), and GAPDH (Ambion; AM4300, 1:5000). Blots were imaged using either a LI-COR Odyssey imaging system or the Bio-Rad ChemiDoc imaging station according to the manufacturer's protocol for immunoblot detection with use of Infrared dye or horseradish peroxidase-conjugated secondary antibodies, respectively.

[5] = test system: CD74-ROS1-rearranged lung adenocarcinoma; test: Patient case: crizotinib treatment, response by RECIST v1.1; format: in vivo, human; conditions: one patient, 250 mg twice daily
Text: A never smoker with metastatic lung adenocarcinoma involving the pleura received three cycles of first-line systemic therapy with cisplatin, pemetrexed, and bevacizumab (FIG. 1, FIG. 9).

[6] = test system: ROS1-rearranged lung cancers; conditions: phase 1 expansion cohort data; cited from earlier work

## COc1cc2nccc(Oc3ccc(NC(=O)C4(C(=O)Nc5ccc(F)cc5)CC4)cc3)c2cc1OC [cabozantinib]
[1]
  IC50: 0.78 nM
[2]; read-out: IC50, growth inhibition, Ba/F3 CD74-ROS1D2033N cells, 72 h exposure
  IC50: 2.8 nM
[3]
  reduction in disease burden: 92%

## Cc1cc(Nc2ncc(Cl)c(Nc3ccccc3S(=O)(=O)C(C)C)n2)c(OC(C)C)cc1C1CCNCC1 [ceritinib]
[2]; Ba/F3 cells, 72 h, ratio of IC50
  fold decrease in sensitivity, CD74-ROS1D2033N compared to native CD74-ROS1: 4.3 fold

## C[C@@H](Oc1cc(-c2cnn(C3CCNCC3)c2)cnc1N)c1c(Cl)ccc(F)c1Cl [crizotinib]
[4]
  inhibition of phosphorylation of ROS1 and downstream effectors SHP2, ERK1/2, AKT and STAT3: dose-dependent inhibition
[5]
  time on drug until widespread disease progression: 26 months
[5]; RECIST v1.1
  clinical response (in words): durable partial response
  reduction in disease burden: 64%
[6]
  median progression-free survival: 19 months
  response rate: 72%

## COc1cc2c(Oc3ccc(NC(=O)C4(C(=O)Nc5ccc(F)cc5)CC4)cc3F)ccnc2cc1OCCCN1CCOCC1 [foretinib]
[2]; Ba/F3 cells, 72 h
  sensitivity of CD74-ROS1D2033N mutant (in words): remained highly sensitive
